Laboratory results from patent US20250332183A1, “COMPOSITIONS AND METHODS FOR THE STIMULATION OF INTERMEDIATE MACROPHAGES AND TREATMENTS THEREWITH” (priority 2024, published 2025).
Entries after “also recorded” stand apart in the source; their conditions may differ. Like-named read-outs stand apart in the source and are kept apart here.

Legend:
[1] = Plasma pharmacokinetics of AVR-48 after iv dosing in preterm lambs; assay type: in vivo, lamb
Method: Formulation and dosing of AVR-48. AVR-48 (3 mg/mL) was formulated in 0.9% sterile saline and filtered through a 0.2-micron syringe filter into 10 mL serum vials ready for dosing. The efficacy dose was determined in a pilot study by stepwise escalating the AVR-48 dose concentrations. […] The vehicle control groups received 0.9% sterile saline every 12 hours (h).
Pharmacokinetic study. The pharmacokinetics (PK) of AVR-48 were determined using plasma from the PT lambs following twice daily IV infusion (10 min) of AVR-48 every 12 h for 7 days. Tested doses were 0 (n=2), 0.1 (n=1), 0.3 (n=1), 1.0 (n=2), 3.0 (n=3), and 9 (n=1) mg/kg. PK evaluation for AVR-48 was only performed for DOL1 (12 time points between 0 and 12 h after the initial dose; volume of plasma samples through DOL2-7 was inadequate for PK evaluation). Quality-controlled plasma bioanalytical data were transferred from the Bioanalytical group to the PK Scientist of the Biopharmaceutics Department of Pharmascience Inc. Samples were analyzed, using Phoenix WinNonlin software, version 8.1 (Certara, USA), using a previously standardized HPLC/LC/MS method.

[2] = tested on: preterm lamb model of BPD; test: Respiratory system mechanics (ventilator, forced oscillation technique, methacholine challenge); assay type: in vivo
Method: Respiratory system mechanics assessments with methacholine challenge. The respiratory system mechanics were assessed for the early-stage study (DOL1-10) and late-stage study (DOL10-90). For the early-stage research, the Drager ventilator recorded respiratory system mechanics every 5 min while the PT lambs were intubated and mechanically ventilated. The parameters were dynamic lung compliance and resistance. The inventors averaged the parameters every 12 h.
For the early and late-stage studies, after the lambs were extubated and transitioned to noninvasive respiratory support and spontaneously breathing (DOL7-10) and thereafter to DOL90, the inventors used forced oscillometry (FOT; model Tremoflo N-100; Thorasys, Thoracic Medical Systems Inc., Montreal, QC, Canada), with a filter (Humid-Vent Filter Small A, Teleflex Medical, Ireland). This instrument, validated in term and PT human infants,^18 allows the measurement of respiratory system mechanics in uncooperative subjects (not intubated and breathing spontaneously) by applying a pressure stimulus at the airway opening and measuring the resulting flow. The inventors used a small canine mask (product number 93815026; Midmark Corp., Versailles, OH). The FOT device was calibrated daily, and the use followed the manufacturer's instructions. The inventors used the standard TremoFlo-supplied software without modifications. The software enables post hoc inspection of the measurement time course. As recommended by the manufacturer, any measurement with a leak was discarded. FOT measurements were made for the FPT lambs at 1 month corrected postnatal age (1 moC; DOL60) and 2 moC (DOL90). The comparison time points for term reference lambs were matched for corrected postnatal age.
FOT analysis was done on lambs that stood prone, supported by a veterinary sling. The lambs were given Lorazepam (0.1 mg/Kg, intramuscularly) to keep them calm. The mask was placed over their muzzle and held in place by a tender. The lambs were habituated to the sling and mask before testing was done. FOT was used to measure respiratory system resistance and reactance in four steps: (1) baseline, (2) bronchodilator (albuterol), (3) bronchoconstrictor (methacholine challenge), and (4) bronchodilator (albuterol). The inventors used an Aeroneb Pro nebulizer (Aerogen Ltd, Galway, Ireland) connected to the mask. The inventors repeatedly measured tissue O2 saturation by pulse oximetry, heart rate, and blood pressure. After the baseline measurement, the inventors nebulized albuterol (1.5 mL; Hi-Tech Pharmacal Co., Amityville, NY) to dilate the airways in each lamb before methacholine challenge. Airway responsiveness was assessed during stepwise increases in nebulized methacholine (Provocholine; Pancap, Inc., Markham, Ontario, Canada), according to the ATS 1999 guideline^19 and reported by the inventors for FPT and term reference lambs.^14 Methacholine concentration was doubled for each step, starting from 0.06 mg/mL up to a maximum concentration of 4.00 mg/mL. At the end of the methacholine challenge steps, 1.5 mL of albuterol was nebulized to dilate the airways. All lambs tolerated the procedure, which took 45-60 min.

[3] = Clinical biochemistry and physiological parameters of treated lambs; assay type: in vivo, lamb
Method: Arterial blood and free-fall urine samples were collected every 24 h and analyzed for indicators of liver and kidney function (Associated Regional and University Pathologists (ARUP) Laboratories, Salt Lake City).
Clinical biochemistry. Plasma and urine samples were analyzed by Associated Regional and University Pathologists (ARUP) at the University of Utah. Plasma renal function parameters are urea nitrogen and creatinine. Plasma hepatic function parameters are alkaline phosphatase, aspartate aminotransferase, alanine aminotransferase, total protein, albumin, bilirubin total, and direct bilirubin.
Physiological parameters for lambs in the early and late-stage studies. Physiology results were obtained including cardiovascular physiology, temperature, respiratory rates, indices for oxygenation, ventilation indices, plasma pH, bicarbonate, base excess, plasma electrolytes, plasma glucose, hematocrit (Hct), total serum protein (Tsp), lactate, enteral feeding, milk residual, and hematology for early and late-stage studies.

mice = test: Mouse model of influenza peptide vaccination; assay type: in vivo; conditions: AVR-48 alone or with Flu-A peptide, vs MPLA
Method: Study design: N=4/per group ([…], 6-7 months old). Group-1: (FluA) 1st dose; No 2nd dose; Group-2: (FluA) 1st dose; (FluA+MPLA) 2nd dose; Group 3: AVR-48 1st dose; No 2nd dose; and Group 4: Flu-A 1st dose; Flu-A+AVR-48 2nd dose.
Outcome measures: immune cell quantification (FACS) in the spleen, and IgG in serum (ELISA).
In vivo study: In one study, C57Bl/6J mice (n=4/group) were dosed intramuscularly (IM) with either complete Freund's adjuvant (CFA) or incomplete Freund's adjuvant (IFA) along with AVR-48 for a 28-day study using a prime-boost-boost regimen. In the second study, mice were dosed with MPLA and Flu-peptide using only the priming dose regimen (no booster). Splenic immune cells and plasma immunoglobin concentrations were assessed at day 28.

[4] = 3.00 mg/kg bid iv, Day 1, 0 to 12 hr post dose, lamb plasma
[5] = 3.00 mg/kg bid iv, Day 1, lamb plasma
[6] = FOT, d90, FPT lambs vs FPT vehicle
[7] = ventilator-measured, invasive mechanical ventilation DOL1-7, PT lambs vs vehicle
[8] = early-stage study DOL 1-7, vs vehicle

With `CC(=O)NC1C(Oc2ccc([N+](=O)[O-])cc2)OC(CO)C(O)C1O` (stereo not drawn) [AVR-48] the “AUC(0-t)” value [1, 4] was 4222.9 ± 1835.9 ng·h/mL, the Cmax [1, 4] was 3885.7 ± 1458.7 ng/mL and the Tmax ([1]; 3.00 mg/kg bid iv, Day 1, 0 to 12 hr post dose, male and female lamb plasma) was 15 min. For the same compound, the “C0 (theoretical Cmax, concentration extrapolated to 0 hr)” value [1, 5] was 5138.8 ng/mL, the CL [1, 5] was 13.19 mL/min/kg and the T1/2 [1, 5] was 38.4 ± 14.4 min. For the same compound, the Tlast [1, 5] was 4.75 h, the Vd [1, 5] was 0.6684 ± 0.129 L/kg and the “plasma concentration 15 minutes after each repeat dosing” value ([1]; 3.0 mg/kg iv every 12 h for 7 d, lamb plasma) was 3886.6 ± 619.7 ng/mL. The Cmax ([1]; 3.0 mg/kg/dose iv, lamb plasma, read-out: Cmax) was 10.7 µM, the “Exposure (AUC(0-t)) over the dose range tested” value ([1]; 0.1-9 mg/kg/dose iv) was “increased dose-relatedly; also recorded: increased in a dose-related manner” and the “repeat dose Cmax” value ([1]; iv every 12 h for 7 d, 0.1-9 mg/kg/dose) was “consistent and dose-dependent”. The “resistance and reactance of the respiratory system” value ([2]; FOT, DOL 60, late-stage study) was “No significant difference”, the “baseline reactance at 5 and 10 Hz (upper and large airways)” value [2, 6] was “significantly less negative” and the “baseline resistance at 5 Hz (upper and large airways)” value [2, 6] was “significantly lower”. For the same compound, the “reactance at 5 and 10 Hz after methacholine challenge” value [2, 6] was “significantly less negative”, the “reactance at 7-20 Hz after albuterol nebulization” value [2, 6] was “less negative reactance” and the “resistance at 5 Hz after methacholine challenge” value [2, 6] was “significantly lower resistance”. The “resistance at 7-20 Hz after albuterol nebulization” value [2, 6] was “significantly lower resistance”, the “respiratory system resistance in large (5 Hz), middle (7-20 Hz), and small (41 Hz) airways” value ([2]; FOT, end of early-stage study (DOL10), PT lambs 3.0 mg/kg vs vehicle) was “significantly lower resistance” and the “airway reactance AX (area under the curve below zero)” value ([2]; FOT, end of early-stage study (DOL10), PT lambs vs vehicle) was “significantly lower”. For the same compound, the dynamic lung compliance [2, 7] was “No statistically significant differences; also recorded: consistently lower”, the lung resistance [2, 7] was “No statistically significant differences” and the “clinical parameters (plasma renal and hepatic function)” value ([3]; AVR-48 treated lambs) was “within the normal range”. The “physiological outcomes (cardiovascular, temperature, respiratory rates, plasma chemistry, feeding, hematology)” value ([3]; early and late-stage studies) was “no adverse effect”, the Hematology [3, 8] was “No statistical difference” and the “plasma glucose, Hct, Tsp, and lactate” value [3, 8] was “No statistical difference”. For the same compound, the “plasma pH, bicarbonate, and BE” value [3, 8] was “No statistical difference”, the “temperature or respiratory rate” value [3, 8] was “No statistical difference” and the systolic blood pressure ([3]; early-stage study, DOL 6, vs vehicle, not observed on any other days) was “higher systolic blood pressure”. The “volume of tolerable enteral feeding and residual in the stomach” value ([3]; in vivo) was “No statistical difference”, the “CD4+ T-helper cells in mouse spleen” value (mice) was “increased” and the “CD8+ T cells in mouse spleen” value (mice) was “increased”. For the same compound, the “CD19+ B cells in mouse spleen” value (mice) was “increased”, the “CD38+/CD27+ plasma blasts in mouse spleen” value (mice) was “increased” and the “IgG in mouse serum” value (mice) was “increased”.
